Measurements published in patent US4407798A, “Cephem compounds” (Fujisawa Pharmaceutical Co., Ltd., priority 1980, dated 1983).
Values after ≈ are worked out from the molar mass of the structure shown.

Test system: Escherichia coli 31
Assay: In vitro antimicrobial activity, two-fold agar-plate dilution method (MIC)
Format: cell-based
Settings: HI-agar, 37° C., 20 hours
Description: Now in order to show the utility of the object compounds (I), the test data on the in vitro antimicrobial activity of some representative compounds (I) of this invention are shown in the following. Test: In vitro Antimicrobial Activity.
In vitro Antimicrobial activity was determined by the two-fold agar-plate dilution method as described below.
One loopful of an overnight culture of each test strain in Tripticase-soy broth (approximately 10^8 viable cells per ml) was streaked on heart infusion agar (HI-agar) containing graded concentrations of antimicrobial agents, and the minimal inhibitory concentration (MIC) was expressed in term of μg/ml after incubation at 37° C. for 20 hours.

Row | MIC | SMILES
1 | 0.05 µg/mL (≈ 0.103 µM) | CCO/N=C(\C(=O)NC1C(=O)N2C(C(=O)[O-])=C(C[n+]3ccccc3)CSC12)c1nccc(N)n1 (stereo not drawn) [Compound C, 7-[2-Ethoxyimino-2-(4-aminopyrimidin-2-yl)acetamido]-3-(1-pyridiniomethyl)-3-cephem-4-carboxylate (syn isomer)]
2 | 0.05 µg/mL (≈ 0.0955 µM) | Nc1ccnc(/C(=N/OC2CCCC2)C(=O)NC2C(=O)N3C(C(=O)[O-])=C(C[n+]4ccccc4)CSC23)n1 (stereo not drawn) [Compound A, 7-[2-Cyclopentyloxyimino-2-(4-aminopyrimidin-2-yl)acetamido]-3-(1-pyridiniomethyl)-3-cephem-4-carboxylate (syn isomer)]
3 | 0.05 µg/mL (≈ 0.097 µM) | CSCO/N=C(\C(=O)NC1C(=O)N2C(C(=O)[O-])=C(C[n+]3ccccc3)CSC12)c1nccc(N)n1 (stereo not drawn) [Compound B, 7-[2-Methylthiomethoxyimino-2-(4-aminopyrimidin-2-yl)acetamido]-3-(1-pyridiniomethyl)-3-cephem-4-carboxylate (syn isomer)]
4 | 0.05 µg/mL (≈ 0.101 µM) | C#CCO/N=C(\C(=O)NC1C(=O)N2C(C(=O)[O-])=C(C[n+]3ccccc3)CSC12)c1nccc(N)n1 (stereo not drawn) [Compound D, 7-[2-Propargyloxyimino-2-(4-aminopyrimidin-2-yl)acetamido]-3-(1-pyridiniomethyl)-3-cephem-4-carboxylate (syn isomer)]
